Data reported in patent US20100233229A1, “IN-VIVO INDWELLING DEVICE” (Terumo Kabushiki Kaisha, priority 2007, published 2010).

Test: ultra-micro hardness under load (HTL) of coating layer, JIS Z2255, dynamic ultra micro hardness tester
Assay type: physicochemical
Details: coating layer on SUS disc; 50 mg sirolimus, 50 mg PLGA, 10 mg (20% based on PLGA) of the triglyceride; about 30 μm
Procedure: When the medium-chain fatty acid triglyceride is added to the coating layer (for example, the layer formed on at least a part of a surface of a stent main body and formed from the composition containing the biologically active agent, the biodegradable polymer, and the medium-chain fatty acid triglyceride) formed on a surface of the in-vivo indwelling device, for example, on a surface of a stent, flexibility can be imparted to the coating layer. In addition, as a method for quantitatively measuring the flexibility of a very thin layer such as the above-mentioned coating layer, measurement of ultra-micro hardness under load (also called “HTL,” “dynamic hardness” and “universal hardness”) by use of an ultra-micro hardness tester can be used. In this method, as described in JIS Z2255, hardness of a solid material is measured as a resistance to a triangular pyramid diamond indenter when the indenter is pressed against the surface of a specimen, and it is possible by the method to measure hardness in a very minute region of a solid material having a thickness of not less than 10 μm. In order that such a damage as cracking of the coating layer or exfoliation of the coating layer from the stent main body is mitigated or not generated when the stent is expanded, the ultra-micro hardness under load can be 15 or below, more preferably 12 or below, and particularly preferably 10 or below. The present inventors have made earnest search for a substance which causes the ultra-micro hardness under load of the coating layer to be, for example, 15 or below and which is high in safety, among a large number of additives. As a result of the search, they found exemplary medium-chain fatty acid triglycerides.
The circular discs provided thereon with the respective coating layers were sterilized by electron beams, and ultra-micro hardness under load (HTL) of the coating layers was measured according to JIS Z2255 by use of a dynamic ultra micro hardness tester produced by Shimadzu Corporation. A lower value of HTL indicates a higher flexibility of the coating layer.
The stent was crimped onto a balloon of a delivery catheter, and sterilized by electron beams. The ultra-micro hardness under load (HTL) of the coating layer after sterilization was measured according to JIS Z2255 by use of a dynamic ultra micro hardness tester produced by Shimadzu Corporation.

ultra-micro hardness under load (HTL)	SMILES
15	CCCCCCCCCCCC(=O)OCC(COC(=O)CCCCCCCCCCC)OC(=O)CCCCCCCCCCC [Trilaurin]
20	CCCCCCCCCCCCCC(=O)OCC(COC(=O)CCCCCCCCCCCCC)OC(=O)CCCCCCCCCCCCC [Trimyristin]
10	CCCCCCCC(=O)OCC(COC(=O)CCCCCCC)OC(=O)CCCCCCC [Tricaprylin]

Second part, the compound before the results:

SMILES	ultra-micro hardness under load (HTL)
CCCCCCCCCC(=O)OCC(COC(=O)CCCCCCCCC)OC(=O)CCCCCCCCC [Tricaprin]	9
CC(=O)OCC(COC(C)=O)OC(C)=O [Triacetin]	20
CCCCCC(=O)OCC(COC(=O)CCCCC)OC(=O)CCCCC [Tricaproin]	15
CCCC(=O)OCC(COC(=O)CCC)OC(=O)CCC [Tributyrin]	19
